# PubChem BioAssay AID1963436 (Molecular Pharmacology Branch, DTP, NCI, 2024)
# Where “and” joins values, the source holds several entries; their conditions need not be identical. Identical values can stand only once.
# Tested on: OVCAR-5 complex spheroid (HUVEC/MSC), viability % T/C
# Test: Anticancer human tumor OVCAR-5 cell line growth inhibition [Asc];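 further: spheroids exposed to agents for 7 days before readout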;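 on viability, T/C: 100% = DMSO vehicle-treated wells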
# Conditions: for viability, T/C: stronger effect = lower value
# Description: Multicellular complex tumor spheroid response to apoptosis pathway targeting inhibitors Alrizomadlin, Pelcitoclax, and Dasminapant in combination with a variety of drugs and investigational agents in selected tumor cell lines
# The MDM2 inhibitor alrizomadlin, the Bcl-2/Bcl-xL inhibitor pelcitoclax, and the IAPs inhibitor dasminapant were evaluated both individually and in combination with standard of care and investigational anticancer small molecules within a complex spheroid model of solid tumors. . Complex spheroids include a stromal component modeled by human endothelial cells (HUVEC) and fibroblasts modeled by human mesenchymal stem cells (MSCs). The concentration ranges selected for each drug and investigational agent were based upon clinically achievable concentrations if the clinical Cmax of the agent was known.
# Compounds. The drugs and investigational agents: alrizomadlin (APG-115; NSC831270), pelcitoclax (APG-1252; NSC835773), dasminapant (APG-1387;NSC834197), TAK-243 (NSC785004), copanlisib (NSC809693), olaparib (NSC753686), talazoparib (NSC767125), cobimetinib (NSC 768068), eltanexor (KPT-8602, NSC 794443), abemaciclib (NSC 768073), sotorasib (NSC818433), adagrasib (NSC 831453), MRTX-1133 (NSC 836407), Iadademestat (ORY1001, NSC 806812), and RMC-4630 (NSC839698), were obtained from the NCI Developmental Therapeutics Program Chemical Repository. The FDA-approved anticancer drug set is available from the Developmental Therapeutics Program at https://dtp.cancer.gov/organization/dscb/obtaining/available plates.htm. […] The stock solutions were prepared in dimethyl sulfoxide (DMSO, Sigma-Aldrich, St. Louis, MO, cat. D2650) at 800-fold the tested concentration and stored at -70 degrees C prior to their use. All drugs and investigational agents were tested over a range starting from a high concentration at or near the clinical Cmax and decreasing in half-log increments. If the clinical Cmax for an agent had not been determined, the highest concentration tested was 10 microM.
# The patient-derived cancer (PDC) cell lines include five colon adenocarcinomas: 186277-243-T-J2-PDC, 616215-338-R-J1-PDC, 439559-082-T-J2-PDC, 463943-066-T-J2-PDC, and 519858-162-T-J1-PDC; three pancreatic carcinomas: 323965-272-R-J2-PDC, 521955-158-R6-J3-PDC, and 521955-158-R2-J5-PDC; two uterine sarcomas: 327498-152-R-J2-PDC and 993429-296-R-J1-PDC; two rhabdomyosarcomas: 755483-174-R-J1-PDC and 772245-204-R-J1-PDC; two soft tissue sarcomas: 126254-015-R-J1-PDC and 494315-158-R-J1-PDC; two malignant fibrous histiocytomas: 317291-083-R-J1-PDC and 596521-263-R-J1-PDC; two breast carcinomas: 171881-019-R-J1-PDC and 885512-296-R-J2-PDC; and one ovarian carcinoma: 6556581-035-R-J-PDC were obtained from the NCI PDMR, (https://pdmr.cancer.gov). The established cell lines HSSY-2 synovial sarcoma (RRID:CVCL 8719), SYO-1 synovial sarcoma (RRID:CVCL_7146), MPNST malignant peripheral neural sheath tumor were obtained from the Sloan Kettering Institute. The following established cell lines were purchased from the American Type Culture Collection (ATCC, Manassas, VA), Sor the received from the NCI repository:, PANC-1 pancreatic carcinoma (CRL-1469, RRID:CVCL_0480), OVCAR-5 ovarian carcinoma (RRID:CVCL_1628), OVCAR-8 ovarian carcinoma (RRID:CVCL_1629), , MCF-7 breast carcinoma (CRL-12584, RRID:CVCL_0031), MDA-MB-231 breast carcinoma (CRL-12532, RRID:CVCL_0062), NCI-H1876 small cell lung carcinoma (CRL-5902, RRID:CVCL_1503), NCI-H510A small cell lung carcinoma (HTB-184, RRID:CVCL_1565), NCI-H1417 (CRL-5869, RRID:CVCL_1469), and NCI-H196 small cell lung carcinoma (CRL-5823, RRID:CVCL_1509). Dr. Peter Houghton (Greehey Children's Cancer Research Institute, University of Texas Health Science Center, San Antonio, TX) provided Rh-18 rhabdomyosarcoma (RRID:CVCL_1659). Pooled donor human umbilical vein endothelial cells (HUVEC, Lonza, cat. CC-2519) and human mesenchymal stem cells (hMSC, Lonza, cat. PT-2501) were purchased from Lonza (Walkersville, MD).
# Cell Culture. […]
smiles,measurement,setting,value
O=C(c1cc(Cc2n[nH]c(=O)c3ccccc23)ccc1F)N1CCN(C(=O)C2CC2)CC1 + CCN1C(C(=O)NC23CCC(C(=O)O)(CC2)CC3)C(c2cccc(Cl)c2F)C2(C(=O)Nc3cc(Cl)ccc32)C12CCCCC2,IC50,"curve of first compound, second compound 0.03 µM",> 10000 nM
same,IC50,"curve of first compound, second compound 0.0949 µM",> 10000 nM
same,IC50,"curve of first compound, second compound 0.3 µM",> 10000 nM
same,IC50,"curve of first compound, second compound 0.949 µM",> 10000 nM
same,IC50,"curve of first compound, second compound 3 µM",> 10000 nM
same,"viability, T/C","second compound 0.03 µM, first compound 0.0316 µM",96%
same,"viability, T/C","second compound 0.03 µM, first compound 0.1 µM",104%
same,"viability, T/C","second compound 0.03 µM, first compound 0.316 µM",83.9%
same,"viability, T/C","second compound 0.03 µM, first compound 1 µM",86.8%
same,"viability, T/C","second compound 0.03 µM, first compound 3.16 µM",92.5%
same,"viability, T/C","second compound 0.03 µM, first compound 10 µM",83.3%
same,"viability, T/C","second compound 0.0949 µM, first compound 0.0316 µM",101%
same,"viability, T/C","second compound 0.0949 µM, first compound 0.1 µM",110%
same,"viability, T/C","second compound 0.0949 µM, first compound 0.316 µM",93.8%
same,"viability, T/C","second compound 0.0949 µM, first compound 1 µM",85.8%
same,"viability, T/C","second compound 0.0949 µM, first compound 3.16 µM",85.4%
same,"viability, T/C","second compound 0.0949 µM, first compound 10 µM",85%
same,"viability, T/C","second compound 0.3 µM, first compound 0.0316 µM",101%
same,"viability, T/C","second compound 0.3 µM, first compound 0.1 µM",97.2%
same,"viability, T/C","second compound 0.3 µM, first compound 0.316 µM",97.7%
same,"viability, T/C","second compound 0.3 µM, first compound 1 µM",75.1%
same,"viability, T/C","second compound 0.3 µM, first compound 3.16 µM",86.3%
same,"viability, T/C","second compound 0.3 µM, first compound 10 µM",82.7%
same,"viability, T/C","second compound 0.949 µM, first compound 0.0316 µM",106%
same,"viability, T/C","second compound 0.949 µM, first compound 0.1 µM",105%
same,"viability, T/C","second compound 0.949 µM, first compound 0.316 µM",102%
same,"viability, T/C","second compound 0.949 µM, first compound 1 µM",92%
same,"viability, T/C","second compound 0.949 µM, first compound 3.16 µM",89%
same,"viability, T/C","second compound 0.949 µM, first compound 10 µM",97.6%
same,"viability, T/C","second compound 3 µM, first compound 0.0316 µM",104%
same,"viability, T/C","second compound 3 µM, first compound 0.1 µM",115%
same,"viability, T/C","second compound 3 µM, first compound 0.316 µM",111%
same,"viability, T/C","second compound 3 µM, first compound 1 µM",96.5%
same,"viability, T/C","second compound 3 µM, first compound 3.16 µM",88.9%
same,"viability, T/C","second compound 3 µM, first compound 10 µM",91.5%
CCN1CCN(Cc2ccc(Nc3ncc(F)c(-c4cc(F)c5nc(C)n(C(C)C)c5c4)n3)nc2)CC1 + CNC(C)C(=O)NC1CN(S(=O)(=O)c2cccc(S(=O)(=O)N3CCC4CCC(C(=O)NC(c5ccccc5)c5ccccc5)N4C(=O)C(NC(=O)C(C)NC)C3)c2)CCC2CCC(C(=O)NC(c3ccccc3)c3ccccc3)N2C1=O,IC50,"curve of first compound, second compound 0.01 µM",> 1000 nM
same,IC50,"curve of first compound, second compound 0.0316 µM",> 1000 nM
same,IC50,"curve of first compound, second compound 0.1 µM",> 1000 nM
same,IC50,"curve of first compound, second compound 0.316 µM",642 nM
same,IC50,"curve of first compound, second compound 1 µM",> 1000 nM
same,"viability, T/C","second compound 0.01 µM, first compound 0.00316 µM",87.1%
same,"viability, T/C","second compound 0.01 µM, first compound 0.01 µM",83.2%
same,"viability, T/C","second compound 0.01 µM, first compound 0.0316 µM",67.7%
same,"viability, T/C","second compound 0.01 µM, first compound 0.1 µM",59.5%
same,"viability, T/C","second compound 0.01 µM, first compound 0.316 µM",62.7%
same,"viability, T/C","second compound 0.01 µM, first compound 1 µM",49.9%
same,"viability, T/C","second compound 0.0316 µM, first compound 0.00316 µM",76%
same,"viability, T/C","second compound 0.0316 µM, first compound 0.01 µM",71.9%
same,"viability, T/C","second compound 0.0316 µM, first compound 0.0316 µM",58.4%
same,"viability, T/C","second compound 0.0316 µM, first compound 0.1 µM",55.2%
same,"viability, T/C","second compound 0.0316 µM, first compound 0.316 µM",57.2%
same,"viability, T/C","second compound 0.0316 µM, first compound 1 µM",49.3%
same,"viability, T/C","second compound 0.1 µM, first compound 0.00316 µM",76.8%
same,"viability, T/C","second compound 0.1 µM, first compound 0.01 µM",67.2%
same,"viability, T/C","second compound 0.1 µM, first compound 0.0316 µM",55.4%
same,"viability, T/C","second compound 0.1 µM, first compound 0.1 µM",50%
same,"viability, T/C","second compound 0.1 µM, first compound 0.316 µM",55%
same,"viability, T/C","second compound 0.1 µM, first compound 1 µM",47%
same,"viability, T/C","second compound 0.316 µM, first compound 0.00316 µM",69.3%
same,"viability, T/C","second compound 0.316 µM, first compound 0.01 µM",70.3%
same,"viability, T/C","second compound 0.316 µM, first compound 0.0316 µM",59%
same,"viability, T/C","second compound 0.316 µM, first compound 0.1 µM",54.8%
same,"viability, T/C","second compound 0.316 µM, first compound 0.316 µM",52%
same,"viability, T/C","second compound 0.316 µM, first compound 1 µM",49.4%
same,"viability, T/C","second compound 1 µM, first compound 0.00316 µM",76.8%
same,"viability, T/C","second compound 1 µM, first compound 0.01 µM",65.3%
same,"viability, T/C","second compound 1 µM, first compound 0.0316 µM",65.9%
same,"viability, T/C","second compound 1 µM, first compound 0.1 µM",58.9%
same,"viability, T/C","second compound 1 µM, first compound 0.316 µM",51.9%
same,"viability, T/C","second compound 1 µM, first compound 1 µM",51.5%
C=CC(=O)N1CCN(c2nc(=O)n(-c3c(C)ccnc3C(C)C)c3nc(-c4c(O)cccc4F)c(F)cc23)C(C)C1 (centres undefined),"viability, T/C",compound 0.0316 µM,98.8% and 111% and 105%
same,"viability, T/C",compound 0.1 µM,103% and 112% and 98%
same,"viability, T/C",compound 0.316 µM,110% and 116% and 104%
same,"viability, T/C",compound 1 µM,122% and 114% and 107%
same,"viability, T/C",compound 3.16 µM,120% and 115% and 111%
same,"viability, T/C",compound 10 µM,97% and 100% and 104%
same,IC50,curve of compound,> 10000 nM
NC(=O)C(=Cn1cnc(-c2cc(C(F)(F)F)cc(C(F)(F)F)c2)n1)c1cncnc1,"viability, T/C",compound 0.000949 µM,102% and 107% and 95.8%
same,"viability, T/C",compound 0.003 µM,105% and 93.1% and 99.5%
same,"viability, T/C",compound 0.00949 µM,88.8% and 83.2% and 86.8%
same,"viability, T/C",compound 0.03 µM,89.3% and 78.8% and 86%
same,"viability, T/C",compound 0.0949 µM,78.5% and 71.5% and 81.5%
same,"viability, T/C",compound 0.3 µM,45.6% and 40.4% and 54.9%
same,IC50,curve of compound,265 nM and 212 nM and > 300 nM
